Key:
Type in all cases: in vitro ADME
P-gp = P-gp (Homo sapiens, UniProt P08183); assay: Transporter inhibition in overexpressing cell lines; conditions: ABC family, n = 2, read-out: Drug transport inhibition P-gp
Method: (§1) Microsomal stability was evaluated using human liver microsomes at 10 µM (Table 3). […] Since cytochrome P450 (CYP) enzymes—especially families 1 to 3—play major roles in drug metabolism, CYP inhibition was tested against the human isoforms CYP1A, 2B6, 2C8, 2C9, 2C19, 2D6, and 3A, as recommended by FDA and EMA guidelines. […] Membrane transport proteins, including the ATP-binding cassette (ABC) and solute carrier (SLC) families, affect drug pharmacokinetics and potential drug–drug interactions. The inhibitory effects of compounds 2 and 6 were assessed against five ABC transporters (P-gp, BCRP, MRP1, MRP2, and MRP3) and seven SLC transporters (OAT1, OAT3, OATP1B1, OCT1, OCT2, ASBT, and NTCP).
(§2) Standardized in vitro ADME experiments were performed by Eurofins Cerep (Poitiers, France). Solubility assays were performed in PBS at pH 7.4, but also in simulated gastric fluid (SGF) and intestinal fluid (SIF), through the classical shake-flask method described by Lipinski et al., using HPLC-UV/VIS technology. The results were expressed in µM. The compound was classically evaluated at 10 µM for all of the ADME analyses. Bidirectional permeability (apical A to basolateral B pH 6.5/7.4, and basolateral B to apical A pH 7.4/6.5) was assessed in the epithelial colorectal adenocarcinoma cell line (Caco-2 cell line). The results were expressed as ×10^−6 cm/s (Papp) and as % recovery. The efflux ratio, i.e., Papp (B→A)/Papp(A→B), was calculated. Plasma protein binding was analyzed by HPLC-MS/MS after 4 h of incubation at 37 °C, as described by Banker et al.. Concentration was evaluated by LC/MS-MS. CYP inhibition was performed in human liver microsomes as described in [28]. Analysis of the respective metabolites was performed by HPLC-MS/MS. Transporter inhibition analysis was also performed in overexpressing cell lines. Respective metabolites for each specific transporter substrate were analyzed by fluorometry or scintillation counting, and % inhibition of control values were calculated. P-glycoprotein transporter substrate assessment was performed by bidirectional permeability analysis (apical A to basolateral B pH 7.4/7.4, and basolateral B to apical A pH 7.4/7.4) in the Caco-2 cell line with and without verapamil, as described in [26]. The results were expressed as ×10^−6 cm/s (Papp) and as % recovery. The efflux ratio was calculated as Papp(B→A)/Papp(A→B). CYP450 induction was assessed in human hepatocytes by measuring the mRNA levels of seven CYP isoforms via qPCR, as described in [40]. The compound was tested at 1, 10, and 100 μM, and fold-induction values were compared with predefined cut-off thresholds for each isoform and hepatocyte lot.

MRP2 = MRP2 (Homo sapiens, UniProt Q92887); assay: as above; conditions: ABC family, n = 2, read-out: Drug transport inhibition MRP2
Method: as §1, §2

OAT3 = OAT3 (Homo sapiens, UniProt Q8TCC7); assay: as above; conditions: SLC family, n = 2, read-out: Drug transport inhibition OAT3
Method: as §1, §2

MRP3 = MRP3 (Homo sapiens, UniProt O15438); assay: as above; conditions: ABC family, n = 2, read-out: Drug transport inhibition MRP3
Method: as §1, §2

OAT1 = OAT1 (Homo sapiens, UniProt Q4U2R8); assay: as above; conditions: SLC family, n = 2, read-out: Drug transport inhibition OAT1
Sequence of OAT1 (Q4U2R8 whole entry): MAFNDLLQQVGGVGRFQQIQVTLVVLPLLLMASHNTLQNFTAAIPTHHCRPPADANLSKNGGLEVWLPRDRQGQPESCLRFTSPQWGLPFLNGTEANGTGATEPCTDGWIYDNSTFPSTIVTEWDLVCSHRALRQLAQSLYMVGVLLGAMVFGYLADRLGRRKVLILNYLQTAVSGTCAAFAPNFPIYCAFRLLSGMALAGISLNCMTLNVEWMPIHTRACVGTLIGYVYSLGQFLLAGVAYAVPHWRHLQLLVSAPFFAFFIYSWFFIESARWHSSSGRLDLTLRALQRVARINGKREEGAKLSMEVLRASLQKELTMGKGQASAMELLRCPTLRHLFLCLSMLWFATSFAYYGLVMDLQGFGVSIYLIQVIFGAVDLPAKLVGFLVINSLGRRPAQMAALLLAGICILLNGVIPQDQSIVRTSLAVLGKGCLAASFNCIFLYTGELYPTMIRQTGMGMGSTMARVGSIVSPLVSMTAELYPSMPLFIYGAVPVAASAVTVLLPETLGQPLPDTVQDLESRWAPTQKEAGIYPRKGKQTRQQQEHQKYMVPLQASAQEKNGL
Method: as §1, §2

BCRP = BCRP (Homo sapiens, UniProt Q9UNQ0); assay: as above; conditions: ABC family, n = 2, read-out: Drug transport inhibition BCRP
Method: as §1, §2

NTCP = NTCP (Homo sapiens, UniProt Q14973); assay: as above; conditions: SLC family, n = 2, read-out: Drug transport inhibition NTCP
Sequence of NTCP (Q14973 whole entry): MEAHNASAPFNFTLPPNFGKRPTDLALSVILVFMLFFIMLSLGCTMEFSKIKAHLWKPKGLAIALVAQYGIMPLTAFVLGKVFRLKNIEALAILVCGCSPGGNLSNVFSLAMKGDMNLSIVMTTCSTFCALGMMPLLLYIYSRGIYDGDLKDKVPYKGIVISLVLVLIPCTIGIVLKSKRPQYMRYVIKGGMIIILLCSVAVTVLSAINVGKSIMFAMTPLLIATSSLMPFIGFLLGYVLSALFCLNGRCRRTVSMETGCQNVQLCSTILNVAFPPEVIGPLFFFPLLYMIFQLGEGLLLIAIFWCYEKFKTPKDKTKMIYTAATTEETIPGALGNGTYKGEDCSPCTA
Method: as §1, §2

OCT1 = OCT1 (Homo sapiens, UniProt O15245); assay: as above; conditions: SLC family, n = 2, read-out: Drug transport inhibition OCT1
Sequence of OCT1 (O15245 whole entry): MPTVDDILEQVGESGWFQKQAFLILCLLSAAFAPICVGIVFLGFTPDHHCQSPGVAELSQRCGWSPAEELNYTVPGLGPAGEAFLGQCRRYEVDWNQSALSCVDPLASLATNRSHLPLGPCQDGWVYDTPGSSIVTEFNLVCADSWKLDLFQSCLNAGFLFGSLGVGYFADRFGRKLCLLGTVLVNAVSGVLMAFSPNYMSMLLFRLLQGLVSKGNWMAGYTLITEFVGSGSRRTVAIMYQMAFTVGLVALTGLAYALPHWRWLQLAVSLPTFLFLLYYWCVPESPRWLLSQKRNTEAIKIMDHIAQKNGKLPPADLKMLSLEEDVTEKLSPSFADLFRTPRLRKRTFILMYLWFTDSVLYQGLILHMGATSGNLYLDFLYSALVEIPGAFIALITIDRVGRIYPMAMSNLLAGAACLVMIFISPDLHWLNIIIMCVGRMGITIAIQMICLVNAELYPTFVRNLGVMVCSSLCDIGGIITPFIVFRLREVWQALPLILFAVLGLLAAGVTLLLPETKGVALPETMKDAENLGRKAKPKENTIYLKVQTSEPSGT
Method: as §1, §2

OATP1B1 = OATP1B1 (Homo sapiens, UniProt Q9Y6L6); assay: as above; conditions: SLC family, n = 2, read-out: Drug transport inhibition OATP1B1
Sequence of OATP1B1 (Q9Y6L6 whole entry): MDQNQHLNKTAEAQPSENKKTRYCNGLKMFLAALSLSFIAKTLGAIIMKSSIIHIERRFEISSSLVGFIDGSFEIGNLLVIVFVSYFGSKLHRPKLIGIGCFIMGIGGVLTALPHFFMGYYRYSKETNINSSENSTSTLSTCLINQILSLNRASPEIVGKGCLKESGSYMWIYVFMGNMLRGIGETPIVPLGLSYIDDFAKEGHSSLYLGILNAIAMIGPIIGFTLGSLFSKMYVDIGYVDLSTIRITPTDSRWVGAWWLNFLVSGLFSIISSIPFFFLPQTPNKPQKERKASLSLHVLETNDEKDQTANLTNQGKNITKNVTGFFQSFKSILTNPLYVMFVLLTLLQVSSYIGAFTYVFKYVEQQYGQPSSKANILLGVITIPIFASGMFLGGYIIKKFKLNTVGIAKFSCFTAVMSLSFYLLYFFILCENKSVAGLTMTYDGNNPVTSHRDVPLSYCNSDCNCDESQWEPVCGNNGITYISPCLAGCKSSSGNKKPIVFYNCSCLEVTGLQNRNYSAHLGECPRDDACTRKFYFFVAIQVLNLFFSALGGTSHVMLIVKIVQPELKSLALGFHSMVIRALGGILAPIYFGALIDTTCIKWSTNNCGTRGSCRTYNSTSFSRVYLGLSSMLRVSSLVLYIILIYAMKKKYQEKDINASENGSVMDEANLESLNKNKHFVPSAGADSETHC
Method: as §1, §2

OCT2 = OCT2 (Homo sapiens, UniProt O15244); assay: as above; conditions: SLC family, n = 2, read-out: Drug transport inhibition OCT2
Method: as §1, §2

ABST = ABST (Homo sapiens, UniProt Q12908); assay: as above; conditions: SLC family, n = 2, read-out: Drug transport inhibition ABST
Sequence of ABST (Q12908 whole entry): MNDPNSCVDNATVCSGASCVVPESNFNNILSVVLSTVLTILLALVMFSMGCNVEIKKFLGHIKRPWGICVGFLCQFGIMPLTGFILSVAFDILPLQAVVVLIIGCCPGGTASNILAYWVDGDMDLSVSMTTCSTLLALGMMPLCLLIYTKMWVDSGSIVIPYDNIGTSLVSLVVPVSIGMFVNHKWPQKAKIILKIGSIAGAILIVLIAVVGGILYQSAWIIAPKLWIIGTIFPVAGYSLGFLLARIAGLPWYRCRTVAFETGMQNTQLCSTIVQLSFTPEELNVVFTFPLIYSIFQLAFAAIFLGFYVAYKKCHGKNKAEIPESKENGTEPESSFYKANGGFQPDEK
Method: as §1, §2

MRP1 = MRP1 (Homo sapiens, UniProt P33527); assay: as above; conditions: ABC family, n = 2, read-out: Drug transport inhibition MRP1
Sequence of MRP1 (P33527 whole entry): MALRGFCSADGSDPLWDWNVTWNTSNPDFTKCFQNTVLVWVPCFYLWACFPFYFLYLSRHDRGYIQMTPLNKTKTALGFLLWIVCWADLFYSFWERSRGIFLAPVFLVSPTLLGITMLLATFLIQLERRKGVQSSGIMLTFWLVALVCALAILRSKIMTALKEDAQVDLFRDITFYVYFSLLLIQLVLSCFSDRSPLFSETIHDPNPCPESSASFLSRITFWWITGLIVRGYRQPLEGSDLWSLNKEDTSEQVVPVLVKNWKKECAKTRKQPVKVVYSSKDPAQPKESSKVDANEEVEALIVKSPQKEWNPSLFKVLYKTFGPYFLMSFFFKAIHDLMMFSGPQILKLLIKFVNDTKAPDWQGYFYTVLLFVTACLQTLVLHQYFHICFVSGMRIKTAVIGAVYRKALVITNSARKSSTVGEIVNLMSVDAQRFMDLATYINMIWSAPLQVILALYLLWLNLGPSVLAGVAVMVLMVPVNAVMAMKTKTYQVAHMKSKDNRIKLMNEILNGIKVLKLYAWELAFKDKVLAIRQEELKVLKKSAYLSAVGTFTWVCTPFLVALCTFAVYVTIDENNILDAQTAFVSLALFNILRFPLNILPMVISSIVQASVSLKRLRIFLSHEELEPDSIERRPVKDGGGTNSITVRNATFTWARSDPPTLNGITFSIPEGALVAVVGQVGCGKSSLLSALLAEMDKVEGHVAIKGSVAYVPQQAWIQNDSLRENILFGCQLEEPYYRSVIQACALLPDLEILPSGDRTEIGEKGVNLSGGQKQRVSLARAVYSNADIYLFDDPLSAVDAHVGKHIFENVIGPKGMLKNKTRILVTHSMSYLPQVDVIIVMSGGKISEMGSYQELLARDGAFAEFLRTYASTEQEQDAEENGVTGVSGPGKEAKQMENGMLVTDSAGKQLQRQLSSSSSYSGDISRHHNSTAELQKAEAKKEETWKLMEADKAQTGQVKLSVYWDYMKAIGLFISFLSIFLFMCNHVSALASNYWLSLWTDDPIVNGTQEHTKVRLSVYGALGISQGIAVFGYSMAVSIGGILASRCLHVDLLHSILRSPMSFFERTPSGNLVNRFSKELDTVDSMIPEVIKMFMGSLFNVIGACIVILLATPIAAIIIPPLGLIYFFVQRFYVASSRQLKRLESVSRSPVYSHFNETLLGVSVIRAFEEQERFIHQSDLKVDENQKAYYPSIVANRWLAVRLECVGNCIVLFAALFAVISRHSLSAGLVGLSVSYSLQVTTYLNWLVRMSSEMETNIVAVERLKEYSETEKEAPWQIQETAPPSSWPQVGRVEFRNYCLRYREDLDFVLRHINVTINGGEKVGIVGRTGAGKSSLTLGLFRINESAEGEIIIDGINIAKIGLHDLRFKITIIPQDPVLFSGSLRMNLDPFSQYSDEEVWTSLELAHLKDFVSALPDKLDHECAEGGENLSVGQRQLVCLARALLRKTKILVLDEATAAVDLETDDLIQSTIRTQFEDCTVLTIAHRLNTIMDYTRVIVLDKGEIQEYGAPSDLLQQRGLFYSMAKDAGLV
Method: as §1, §2

CYP2C8 = molecular target: T1, CYP2C8 (Homo sapiens, UniProt P10632); assay: CYP inhibition in human liver microsomes; conditions: n = 2, read-out: CYP inhibition 2C8
T1 construct: tissue Eurofins Cerep (assay provider); host or cells: human liver microsomes
T1 sequence (P10632 whole entry): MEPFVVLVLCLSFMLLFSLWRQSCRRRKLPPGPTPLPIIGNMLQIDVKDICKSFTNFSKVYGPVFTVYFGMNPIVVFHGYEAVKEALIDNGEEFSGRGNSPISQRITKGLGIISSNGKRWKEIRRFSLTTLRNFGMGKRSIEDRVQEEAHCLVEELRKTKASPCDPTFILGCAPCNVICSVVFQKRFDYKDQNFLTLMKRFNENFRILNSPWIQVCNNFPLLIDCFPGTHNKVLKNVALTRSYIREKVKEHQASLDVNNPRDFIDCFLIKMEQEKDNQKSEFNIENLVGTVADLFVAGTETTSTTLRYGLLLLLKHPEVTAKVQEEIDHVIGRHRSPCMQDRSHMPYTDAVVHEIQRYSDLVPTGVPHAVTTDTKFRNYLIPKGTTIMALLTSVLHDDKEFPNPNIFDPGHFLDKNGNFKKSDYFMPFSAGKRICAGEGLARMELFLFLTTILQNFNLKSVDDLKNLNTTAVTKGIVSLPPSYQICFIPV
Method: as §1, §2

CYP2C9 = molecular target: T2, CYP2C9 (Homo sapiens, UniProt P11712); assay: CYP inhibition in human liver microsomes; conditions: n = 2, read-out: CYP inhibition 2C9
T2 construct: tissue Eurofins Cerep (assay provider); host or cells: human liver microsomes
Method: as §1, §2

CYP1A = assay: CYP inhibition in human liver microsomes; conditions: n = 2, read-out: CYP inhibition 1A
Method: as §1, §2

CYP2B6 = molecular target: T3, CYP2B6 (Homo sapiens, UniProt P20813); assay: CYP inhibition in human liver microsomes; conditions: n = 2, read-out: CYP inhibition 2B6
T3 construct: tissue Eurofins Cerep (assay provider); host or cells: human liver microsomes
Method: as §1, §2

CYP2C19 = molecular target: T4, CYP2C19 (Homo sapiens, UniProt P33261); assay: CYP inhibition in human liver microsomes; conditions: n = 2, read-out: CYP inhibition 2C19
T4 construct: tissue Eurofins Cerep (assay provider); host or cells: human liver microsomes
Method: as §1, §2

CYP3A = assay: CYP inhibition in human liver microsomes; conditions: n = 2, read-out: CYP inhibition 3A
Method: as §1, §2

CYP2D6 = molecular target: T5, CYP2D6 (Homo sapiens, UniProt P10635); assay: CYP inhibition in human liver microsomes; conditions: n = 2, read-out: CYP inhibition 2D6
T5 construct: tissue Eurofins Cerep (assay provider); host or cells: human liver microsomes
T5 sequence (P10635 whole entry): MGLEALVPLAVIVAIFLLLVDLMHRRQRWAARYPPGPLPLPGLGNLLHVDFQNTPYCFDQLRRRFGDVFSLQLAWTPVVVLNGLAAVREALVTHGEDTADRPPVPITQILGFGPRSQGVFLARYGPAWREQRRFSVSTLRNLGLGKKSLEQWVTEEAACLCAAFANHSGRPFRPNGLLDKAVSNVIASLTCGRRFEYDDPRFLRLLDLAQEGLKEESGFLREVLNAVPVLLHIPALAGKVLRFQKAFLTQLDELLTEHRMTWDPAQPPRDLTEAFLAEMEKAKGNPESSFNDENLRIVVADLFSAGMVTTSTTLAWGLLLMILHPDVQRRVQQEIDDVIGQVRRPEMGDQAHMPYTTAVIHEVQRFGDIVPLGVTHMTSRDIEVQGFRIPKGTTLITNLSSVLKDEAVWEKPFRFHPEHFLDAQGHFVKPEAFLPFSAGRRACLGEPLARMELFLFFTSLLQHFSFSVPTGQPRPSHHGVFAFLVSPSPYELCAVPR
Method: as §1, §2

Work on CN(CCC(=O)NCc1cccc(Cl)c1)Cc1ccccc1 [Compound 2, 3-(Benzylmethylamino)-N-(3-chlorobenzyl)propanamide] yielded an inhibition at 10 µM (P-gp) of 4.7%, an inhibition at 10 µM (MRP2) of 5.6% and an inhibition at 10 µM (OAT3) of 33.3%. It also gave an inhibition at 10 µM (MRP3) of 0.7%, an inhibition at 10 µM (OAT1) of -23.1% and an inhibition at 10 µM (BCRP) of -9%. The inhibition at 10 µM (NTCP) was 8.7%, the inhibition at 10 µM (OCT1) was 19.9% and the inhibition at 10 µM (OATP1B1) was 3.9%. For the same compound, the inhibition at 10 µM (OCT2) was 54.1%, the inhibition at 10 µM (ABST) was 21.8% and the inhibition at 10 µM (MRP1) was -0.3%. For the same compound, the inhibition at 10 µM (CYP2C8) was -16.8%, the inhibition at 10 µM (CYP2C9) was 13.1% and the inhibition at 10 µM (CYP1A) was 23.3%. The inhibition at 10 µM (CYP2B6) was 16.9%, the inhibition at 10 µM (CYP2C19) was 43.9% and the inhibition at 10 µM (CYP3A) was 30.9%. For the same compound, the inhibition at 10 µM (CYP2D6) was 80.5%.

CN(CCC(=O)NCc1ccc(C#N)cc1)Cc1ccccc1 [Compound 6, 3-(Benzylmethylamino)-N-(4-cyanobenzyl)propanamide] was tested, and the inhibition at 10 µM (P-gp) was 4.7%, the inhibition at 10 µM (MRP2) was 3.3% and the inhibition at 10 µM (OAT3) was 27.8%. For the same compound, the inhibition at 10 µM (MRP3) was 0.4%, the inhibition at 10 µM (OAT1) was -25.8% and the inhibition at 10 µM (BCRP) was -5.8%. It also gave an inhibition at 10 µM (NTCP) of -12.5%, an inhibition at 10 µM (OCT1) of 2.4% and an inhibition at 10 µM (OATP1B1) of 1.3%. For the same compound, the inhibition at 10 µM (OCT2) was 59.3%, the inhibition at 10 µM (ABST) was -8.9% and the inhibition at 10 µM (MRP1) was -1.1%. For the same compound, the inhibition at 10 µM (CYP2C8) was -12.1%, the inhibition at 10 µM (CYP2C9) was 10% and the inhibition at 10 µM (CYP1A) was 13.2%. For the same compound, the inhibition at 10 µM (CYP2B6) was 17.7%, the inhibition at 10 µM (CYP2C19) was 30% and the inhibition at 10 µM (CYP3A) was 17.4%. For the same compound, the inhibition at 10 µM (CYP2D6) was 87.7%.
